Assay results reported in ChEMBL document CHEMBL1201862, “PubChem BioAssay data set” (2004).
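The compound was tested at five concentrations on cells cultured in 96-well plates, with a 48-hour exposure period. The concentration for 50% growth inhibition is given as GI50.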 Activity calls are given as the source filed them. Cut-off read from the data, not from the text of the source: active = GI50 up to about 1.1 µM and inactive = higher.

Columns and labels:
Test in all cases: inhibition of tumour cell growth, NCI panel, 48 h
HOP-92 = test system: HOP-92
HOP-62 = test system: HOP-62
UACC-257 = test system: UACC-257
TK-10 = test system: TK-10
SF-295 = test system: SF-295
U-251 = test system: U-251
K562 = test system: K562
HCT-15 = test system: HCT-15
UACC-62 = test system: UACC-62
XF498 = test system: XF498
KM12 = test system: KM12
COLO 205 = test system: COLO 205
SF-268 = test system: SF-268
NCI-H460 = test system: NCI-H460
RPMI-8226 = test system: RPMI-8226
SK-MEL-28 = test system: SK-MEL-28
HCT-116 = test system: HCT-116
NCI-H23 = test system: NCI-H23
CCRF-CEM = test system: CCRF-CEM
SF-539 = test system: SF-539
ACHN = test system: ACHN
SNB-19 = test system: SNB-19
SN12C = test system: SN12C
IGROV-1 = test system: IGROV-1
MOLT-4 = test system: MOLT-4
A549 = test system: A549
EKVX = test system: EKVX
NCI-H522 = test system: NCI-H522
NCI-H226 = test system: NCI-H226
SNB-78 = test system: SNB-78
DLD-1 = test system: DLD-1
RXF 393 = test system: RXF 393
DMS-114 = test system: DMS-114
DMS-273 = test system: DMS-273
SW-620 = test system: SW-620
SK-MEL-2 = test system: SK-MEL-2
HL-60 = test system: HL-60
SK-MEL-5 = test system: SK-MEL-5
M19-MEL = test system: M19-MEL
M14 = test system: M14
OVCAR-4 = test system: OVCAR-4
OVCAR-8 = test system: OVCAR-8
HCC 2998 = test system: HCC 2998
SNB-75 = test system: SNB-75
OVCAR-5 = test system: OVCAR-5
KM-20L2 = test system: KM-20L2
A498 = test system: A498
UO-31 = test system: UO-31
LXFL 529 = test system: LXFL 529
RXF 631 = test system: RXF 631
HT-29 = test system: HT-29
SR = test system: SR
LOX IMVI = test system: LOX IMVI
SK-OV-3 = test system: SK-OV-3
CAKI-1 = test system: CAKI-1

Q: Which GI50 (HOP-92) does the source give for `Cc1ccc(C)c(NC(=O)C(=O)C(C(=O)c2ccc3ccccc3c2)C2OC(=O)c3ccccc32)c1` (stereo not given) here?
A: 26.1 µM (inactive)

Q: And the GI50 (HOP-62)?
A: 20.2 µM (inactive)

Q: What about the GI50 (UACC-257) of the same compound?
A: 15.5 µM (inactive)

Q: And the GI50 (TK-10)?
A: 19.2 µM (inactive)

Q: What about the GI50 (SF-295) of the same compound?
A: 10.4 µM (inactive)

Q: And the GI50 (U-251)?
A: 4.19 µM (inactive)

Q: What about the GI50 (K562) of the same compound?
A: 25.7 µM (inactive)

Q: What about the GI50 (HCT-15) of the same compound?
A: 21.5 µM

Q: What about the GI50 (UACC-62) of the same compound?
A: 14.6 µM (inactive)

Q: What about the GI50 (XF498) of the same compound?
A: 14.5 µM (inactive)

Q: What about the GI50 (KM12) of the same compound?
A: 14.2 µM (inactive)

Q: And the GI50 (COLO 205)?
A: 15.8 µM (inactive)

Q: And the GI50 (SF-268)?
A: 3.57 µM (inactive)

Q: And the GI50 (NCI-H460)?
A: 11.6 µM (inactive)

Q: And the GI50 (RPMI-8226)?
A: 22.2 µM (inactive)

Q: What about the GI50 (SK-MEL-28) of the same compound?
A: 12.4 µM (inactive)

Q: What about the GI50 (HCT-116) of the same compound?
A: 12.3 µM (inactive)

Q: What about the GI50 (NCI-H23) of the same compound?
A: 15.6 µM (inactive)

Q: And the GI50 (CCRF-CEM)?
A: 10.9 µM (inactive)

Q: And the GI50 (SF-539)?
A: 4.75 µM (inactive)

Q: And the GI50 (ACHN)?
A: 26.5 µM (inactive)

Q: What about the GI50 (SNB-19) of the same compound?
A: 8 µM (inactive)

Q: And the GI50 (SN12C)?
A: 15.7 µM (inactive)

Q: What about the GI50 (IGROV-1) of the same compound?
A: 18.2 µM (inactive)

Q: What about the GI50 (MOLT-4) of the same compound?
A: 5.25 µM (inactive)

Q: And the GI50 (A549)?
A: 18.2 µM (inactive)

Q: What about the GI50 (EKVX) of the same compound?
A: 16.5 µM (inactive)

Q: And the GI50 (NCI-H522)?
A: 10 µM (inactive)

Q: What about the GI50 (NCI-H226) of the same compound?
A: 2.44 µM (inactive)

Q: What about the GI50 (SNB-78) of the same compound?
A: 17.9 µM (inactive)

Q: And the GI50 (DLD-1)?
A: 23 µM (inactive)

Q: What about the GI50 (RXF 393) of the same compound?
A: 2.97 µM (inactive)

Q: What about the GI50 (DMS-114) of the same compound?
A: 7.21 µM (inactive)

Q: What about the GI50 (DMS-273) of the same compound?
A: 3.87 µM (inactive)

Q: And the GI50 (SW-620)?
A: 11.2 µM (inactive)

Q: What about the GI50 (SK-MEL-2) of the same compound?
A: 13.6 µM (inactive)

Q: What about the GI50 (HL-60) of the same compound?
A: 17.1 µM (inactive)

Q: What about the GI50 (SK-MEL-5) of the same compound?
A: 17.2 µM (inactive)

Q: What about the GI50 (M19-MEL) of the same compound?
A: 12.7 µM (inactive)

Q: What about the GI50 (M14) of the same compound?
A: 14.6 µM (inactive)

Q: What about the GI50 (OVCAR-4) of the same compound?
A: 21.9 µM (inactive)

Q: And the GI50 (OVCAR-8)?
A: 7.82 µM (inactive)

Q: And the GI50 (HCC 2998)?
A: 15 µM (inactive)

Q: What about the GI50 (SNB-75) of the same compound?
A: 12.4 µM (inactive)

Q: What about the GI50 (OVCAR-5) of the same compound?
A: 14.9 µM (inactive)

Q: And the GI50 (KM-20L2)?
A: 21.3 µM (inactive)

Q: What about the GI50 (A498) of the same compound?
A: 16.8 µM (inactive)

Q: What about the GI50 (UO-31) of the same compound?
A: 16.5 µM (inactive)

Q: What about the GI50 (LXFL 529) of the same compound?
A: 7.59 µM (inactive)

Q: What about the GI50 (RXF 631) of the same compound?
A: 16.1 µM (inactive)

Q: And the GI50 (HT-29)?
A: 28.1 µM (inactive)

Q: And the GI50 (SR)?
A: 4.45 µM (inactive)

Q: And the GI50 (LOX IMVI)?
A: 13.6 µM (inactive)

Q: What about the GI50 (SK-OV-3) of the same compound?
A: 14.3 µM (inactive)

Q: And the GI50 (CAKI-1)?
A: 20 µM (inactive)
